In US10675284B2, “Treatment of B-cell malignancies by a combination JAK and PI3K inhibitors” (Incyte Corporation, priority 2014, dated 2020):
Where two headings read alike, the source gives them in different places.

Key:
[1] = molecular target: human JAK1 (a.a. 837-1142) (Homo sapiens, UniProt P23458); assay: In vitro JAK kinase assay (HTRF), JAK1; type: biochemical; details: 1 mM ATP; read-out: JAK1 IC50
[2] = molecular target: human JAK2 (a.a. 828-1132) (Homo sapiens (Human), UniProt O60674); assay: In vitro JAK kinase assay (HTRF), JAK2; type: biochemical; details: IC50 ratio, 1 mM ATP
Pfeiffer cells [3] = assay: Cell proliferation assay in Pfeiffer cells; type: cell-based, human; details: for IC50: Homo sapiens, Pfeiffer, 72 h, Pfeiffer cells, 3 days, read-out: IC50, cell growth
Protocol: Diffuse large B cell lymphoma cells were seeded at 2000 cell/well in 96 well culture plates in the absence or presence of 10 ng/ml IL10. Compounds were added to these cells after dilution in DMSO first, followed by dilution in culture medium (4× concentration). The cells were cultured in an incubator for 3 days with 5% CO2. Cell proliferation was assessed using the Cell titer-glow assay (Promega, Madison, Wis.).

Pfeiffer cells [4] = assay: Western blot analysis of Pfeiffer cells; type: cell-based, human; details: 4 hours, then IL-10 for 15 minutes
Protocol: The following materials and methods were used in the Western blot analysis infra. Cells (5 million) were lysed in a 300 μl volume of lysis buffer. Soluble fractions were collected by centrifugation. 25 μl of cell lysate were loaded into Tris-Glycine polyacrylamide gels and subjected to electrophoresis. The proteins were transferred into nitrocellulose membrane and probed with antibodies from Cell Signaling Technology for the following proteins: phospho-Stat3 Y705, phospho-Akt 5473, pim1, pim2, pim3, c-myc, phospho-p70S6K, phosho-S6, phospho-Bad S112 and actin.
IL6 and IL10 promote cell survival through the expression of Pim2, which is dependent on JAK1 activity.
Extracts were analyzed by Western blot for pAKT and pSTAT3.

Pfeiffer cells [5] = assay: Annexin-V staining of Pfeiffer cells (apoptosis); type: cell-based, human; details: 3 days, 10% FBS + IL10, Compound 16 at 1 μM
PI3Kδ (p110δ/p85α) = PI3Kδ (p110δ/p85α) (Homo sapiens (Human), UniProt O00329); assay: PI3Kδ scintillation proximity assay; type: biochemical; details: 20 μM ATP
Protocol: [γ-^33P]ATP (10 mCi/mL) was purchased from Perking Elmer (Waltham, Mass.). […] PI3Kδ (p110δ/p85α) was purchased from Millipore (Bedford, Mass.). ATP, MgCl2, DTT, EDTA, MOPS and CHAPS were purchased from Sigma-Aldrich (St. Louis, Mo.). Wheat Germ Agglutinin (WGA) YSi SPA Scintillation Beads was purchased from GE healthcare life sciences (Piscataway, N.J.). The kinase reaction was conducted in polystyrene 384-well matrix white plate from Thermo Fisher Scientific in a final volume of 25 μL. Inhibitors were first diluted serially in DMSO and added to the plate wells before the addition of other reaction components. The final concentration of DMSO in the assay was 0.5%. […] Reactions were initiated by the addition of ATP, the final reaction mixture consisted of 20 μM PIP2, 20 μM ATP, 0.2 μCi [γ-^33P] ATP, 4 nM PI3Kδ. Reactions were incubated for 210 min and terminated by the addition of 40 μL SPA beads suspended in quench buffer: 150 mM potassium phosphate pH 8.0, 20% glycerol. 25 mM EDTA, 400 μM ATP. The final concentration of SPA beads was 1.0 mg/mL. After the plate sealing, plates were shaken overnight at room temperature and centrifuged at 1800 rpm for 10 minutes, the radioactivity of the product was determined by scintillation counting on Topcount (Perking Elmer).

[6] = test system: Pfeiffer human tumor xenograft; assay: Pfeiffer model of lymphoma (human tumor xenograft in SCID mice); type: in vivo, mouse
Protocol: Female SCID mice, (5 to 8 weeks of age, Charles River Laboratories, Wilmington, Mass.) were inoculated with 1×10^7 tumor cells (Pfeiffer, ATCC #CRL-2632, Manassas, Va.) and matrigel (BD Biosciences #354234) in 0.2 mL sterile saline. The inoculation was performed subcutaneously on the flank. Tumor tissue fragments (approximately 3 mm×3 mm) were collected 3 to 6 weeks after the inoculation of cultured cells and implanted subcutaneously in lieu of cellular inoculation. Tissue fragments were implanted as solid pieces using blunt-tip forceps. The treatment of tumor bearing mice was started 15 to 25 days after tumor inoculation, depending upon the tumor size. Animals were sorted to obtain roughly equivalent mean tumor volumes in each group. Minimum mean tumor volume in all groups was 150 mm3 on the first day of treatment and groups consisted of 7 animals. Experimental therapeutic agent, Example 347, was administered to mice orally (PO). Treatment frequency was 2 times daily for a minimum of 14 days for efficacy. The size of subcutaneous tumors was measured 2 to 3 times weekly using a digital caliper. The tumor volume was calculated by measuring the tumor in 2 dimensions and utilizing the equation: Volume=[Length×(Width2)]/2; where the larger number was length, and the smaller number width. If multiple tumors were formed, the final volume was the sum of the individual tumors subject to the same equation: eg, 2 tumors; Volume={[L1×(W1)2]/2}+{[L2×(W2)2]/2}. Effects on tumor growth were reported as percent tumor growth inhibition (% TGI). Percent TGI was calculated with the equation: (1−(Tx vol./control vol.))*100, where control volume was the vehicle or untreated tumor volume on a given day, and Tx volume was any treatment group tumor volume on that same day. Statistical differences between treatment and vehicle controls were assessed using ANOVA: Single Factor test.
Compound 32c (Table 2 supra) was evaluated as a single agent in the Pfeiffer human tumor xenograft model of diffuse large B-cell lymphoma, a subtype of NHL. […] Therefore, a tumor model was established based on subcutaneous inoculation of tumor cells into immune compromised SCID mice and tumor-bearing mice received twice daily oral doses of vehicle or Compound 32c at 0.3, 1, 3, or 10 mg/kg for 14 days.

[7] = 10% FBS + IL10, ATP readout, Compound 16 at 1 μM in combination

PI3Kδ (p110δ/p85α), sequence (O00329 whole entry): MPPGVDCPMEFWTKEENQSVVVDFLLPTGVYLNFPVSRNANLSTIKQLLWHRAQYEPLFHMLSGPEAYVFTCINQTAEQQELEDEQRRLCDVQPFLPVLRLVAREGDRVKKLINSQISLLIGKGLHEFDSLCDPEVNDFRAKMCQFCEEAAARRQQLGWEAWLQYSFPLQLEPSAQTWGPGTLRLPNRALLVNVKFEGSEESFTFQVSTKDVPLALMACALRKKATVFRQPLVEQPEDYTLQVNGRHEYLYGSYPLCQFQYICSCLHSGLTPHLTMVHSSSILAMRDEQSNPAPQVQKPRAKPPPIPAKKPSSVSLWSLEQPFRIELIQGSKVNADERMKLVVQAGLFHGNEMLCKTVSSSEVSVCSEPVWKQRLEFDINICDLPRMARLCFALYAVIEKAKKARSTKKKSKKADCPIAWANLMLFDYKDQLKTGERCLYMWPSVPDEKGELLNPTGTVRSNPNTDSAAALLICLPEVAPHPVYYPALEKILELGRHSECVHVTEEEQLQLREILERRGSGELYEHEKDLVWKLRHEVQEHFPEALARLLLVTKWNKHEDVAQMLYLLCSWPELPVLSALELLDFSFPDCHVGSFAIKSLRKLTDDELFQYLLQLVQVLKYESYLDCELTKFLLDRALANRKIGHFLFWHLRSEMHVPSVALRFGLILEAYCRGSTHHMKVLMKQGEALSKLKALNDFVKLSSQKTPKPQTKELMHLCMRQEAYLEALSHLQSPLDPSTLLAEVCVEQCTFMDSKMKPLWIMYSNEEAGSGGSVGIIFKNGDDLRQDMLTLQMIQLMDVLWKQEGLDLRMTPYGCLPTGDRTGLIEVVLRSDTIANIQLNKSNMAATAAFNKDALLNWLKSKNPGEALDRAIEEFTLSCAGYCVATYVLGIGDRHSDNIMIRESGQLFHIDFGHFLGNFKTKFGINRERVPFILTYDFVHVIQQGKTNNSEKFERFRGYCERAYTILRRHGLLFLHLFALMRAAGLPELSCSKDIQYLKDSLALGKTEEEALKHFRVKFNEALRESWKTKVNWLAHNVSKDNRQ
PI3Kδ (p110δ/p85α), sequence (P27986 whole entry partner): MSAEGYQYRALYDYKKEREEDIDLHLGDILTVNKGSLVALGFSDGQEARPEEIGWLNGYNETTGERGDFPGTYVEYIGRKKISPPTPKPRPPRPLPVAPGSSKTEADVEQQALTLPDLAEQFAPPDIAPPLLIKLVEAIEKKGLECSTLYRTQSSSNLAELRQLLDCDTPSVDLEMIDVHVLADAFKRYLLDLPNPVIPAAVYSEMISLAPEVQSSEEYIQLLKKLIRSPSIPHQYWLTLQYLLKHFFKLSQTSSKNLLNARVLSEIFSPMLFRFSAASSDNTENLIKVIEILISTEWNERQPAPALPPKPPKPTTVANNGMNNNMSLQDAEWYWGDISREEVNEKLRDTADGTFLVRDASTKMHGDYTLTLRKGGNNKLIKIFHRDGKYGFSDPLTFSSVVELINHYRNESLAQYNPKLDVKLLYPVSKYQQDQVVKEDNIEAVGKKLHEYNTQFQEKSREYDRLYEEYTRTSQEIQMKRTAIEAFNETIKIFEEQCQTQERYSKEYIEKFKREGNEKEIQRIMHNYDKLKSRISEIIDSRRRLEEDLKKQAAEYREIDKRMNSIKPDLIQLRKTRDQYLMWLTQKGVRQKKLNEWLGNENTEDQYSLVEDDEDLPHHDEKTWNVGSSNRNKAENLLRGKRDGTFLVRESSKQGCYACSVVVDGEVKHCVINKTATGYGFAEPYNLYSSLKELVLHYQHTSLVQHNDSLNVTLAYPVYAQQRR
human JAK1 (a.a. 837-1142), sequence (P23458 whole entry, looked up): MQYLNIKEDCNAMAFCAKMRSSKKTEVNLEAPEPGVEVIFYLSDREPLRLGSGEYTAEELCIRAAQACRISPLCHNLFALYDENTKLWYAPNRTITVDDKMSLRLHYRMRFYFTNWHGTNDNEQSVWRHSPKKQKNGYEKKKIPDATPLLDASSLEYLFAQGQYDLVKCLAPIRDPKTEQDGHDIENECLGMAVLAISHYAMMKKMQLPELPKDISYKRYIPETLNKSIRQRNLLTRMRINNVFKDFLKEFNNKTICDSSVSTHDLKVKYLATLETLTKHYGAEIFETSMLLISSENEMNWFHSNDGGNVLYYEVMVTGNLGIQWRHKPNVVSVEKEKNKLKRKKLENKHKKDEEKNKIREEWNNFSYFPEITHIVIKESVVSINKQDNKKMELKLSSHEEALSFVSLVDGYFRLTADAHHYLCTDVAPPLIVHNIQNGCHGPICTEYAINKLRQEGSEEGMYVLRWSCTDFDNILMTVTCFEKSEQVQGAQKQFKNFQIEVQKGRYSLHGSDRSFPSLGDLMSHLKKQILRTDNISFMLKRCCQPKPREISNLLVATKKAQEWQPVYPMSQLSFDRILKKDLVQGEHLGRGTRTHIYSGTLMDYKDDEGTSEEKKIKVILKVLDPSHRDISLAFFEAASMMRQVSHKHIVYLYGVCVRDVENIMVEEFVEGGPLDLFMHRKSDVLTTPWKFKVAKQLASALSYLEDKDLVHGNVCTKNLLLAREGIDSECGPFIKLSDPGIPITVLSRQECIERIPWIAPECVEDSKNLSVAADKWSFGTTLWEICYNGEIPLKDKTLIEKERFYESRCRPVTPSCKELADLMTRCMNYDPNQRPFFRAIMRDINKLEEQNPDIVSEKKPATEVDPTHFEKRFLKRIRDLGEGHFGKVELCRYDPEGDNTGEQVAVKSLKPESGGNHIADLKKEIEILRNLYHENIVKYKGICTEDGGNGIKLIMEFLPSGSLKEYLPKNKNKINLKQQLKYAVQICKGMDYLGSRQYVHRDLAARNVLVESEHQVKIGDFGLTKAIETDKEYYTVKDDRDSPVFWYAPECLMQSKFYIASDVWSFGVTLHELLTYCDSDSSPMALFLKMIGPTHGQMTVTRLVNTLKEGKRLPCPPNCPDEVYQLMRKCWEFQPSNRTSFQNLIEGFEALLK
human JAK2 (a.a. 828-1132), sequence (O60674 828-1132): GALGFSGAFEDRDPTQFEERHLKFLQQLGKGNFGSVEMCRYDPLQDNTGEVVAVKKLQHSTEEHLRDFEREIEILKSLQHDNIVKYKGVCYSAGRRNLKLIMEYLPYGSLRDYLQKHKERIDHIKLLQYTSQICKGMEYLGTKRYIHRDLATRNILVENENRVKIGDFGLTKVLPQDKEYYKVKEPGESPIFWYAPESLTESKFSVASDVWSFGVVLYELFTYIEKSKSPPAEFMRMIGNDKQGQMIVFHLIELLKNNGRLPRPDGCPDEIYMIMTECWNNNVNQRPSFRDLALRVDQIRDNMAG

Row | SMILES | IC50 (Pfeiffer cells [3]; [7]) [nM] | STAT3 phosphorylation (Pfeiffer cells [4]) | pAKT (Pfeiffer cells [4]) | apoptosis (Annexin-V staining) (Pfeiffer cells [5]) | IC50 (PI3Kδ (p110δ/p85α)) [nM] | further results
1 | C[C@H](NC(=O)c1cc(F)c(N2CC(CC#N)(n3cc(-c4ncnc5[nH]ccc45)cn3)C2)cc1F)C(F)(F)F [Compound 16, 4-{3-(cyanomethyl)-3-[4-(7H-pyrrolo[2,3-d]pyrimidin-4-yl)-1H-pyrazol-1-yl]azetidin-1-yl}-2,5-difluoro-N-[(1S)-2,2,2-trifluoro-1-methylethyl]benzamide] | > 1000 | inhibition | no effect | neither agent alone had a significant effect | – | IC50 [1]: < 10 nM; JAK2/JAK1 [2]: >10
2 | Cc1csc2nc([C@H](C)Nc3ncnc4[nH]cnc34)c(-c3cccc(F)c3)c(=O)n12 [Compound 28, (S)-7-(1-(9H-purin-6-ylamino)ethyl)-6-(3-fluorophenyl)-3-methyl-5H-thiazolo[3,2-a]pyrimidin-5-one] | 6360 | did not | complete inhibition | neither agent alone had a significant effect | – | IC50 (Pfeiffer cells [3]; -IL-10, ATP readout): 670 nM
3 | COc1c(C(C)n2nc(C)c3c(N)ncnc32)cc(Cl)c(C#N)c1C1CN(C[C@H](C)O)C1 (stereo partly drawn) [Compound 29, 4-[1-(4-amino-3-methyl-1H-pyrazolo[3,4-d]pyrimidin-1-yl)ethyl]-6-chloro-2-{1-[(2S)-2-hydroxypropyl]azetidin-3-yl}-3-methoxybenzonitrile] | – | – | – | – | < 50 | –
4 | COc1c(C(C)n2nc(C)c3c(N)ncnc32)cc(Cl)c(C#N)c1C1CN(CCO)C1 (stereo not shown) [Compound 30, 4-[1-(4-amino-3-methyl-1H-pyrazolo[3,4-d]pyrimidin-1-yl)ethyl]-6-chloro-2-[1-(2-hydroxyethyl)azetidin-3-yl]-3-methoxybenzonitrile] | – | – | – | – | < 50 | –
5 | CCOc1c(C(C)n2nc(C)c3c(N)ncnc32)cc(C)c(C#N)c1-c1ccc(C(=O)N(C)C)nc1 (stereo not shown) [Compound 31, 5-{3-[1-(4-amino-3-methyl-1H-pyrazolo[3,4-d]pyrimidin-1-yl)ethyl]-6-cyano-2-ethoxy-5-methylphenyl}-N,N-dimethylpyridine-2-carboxamide] | – | – | – | – | < 50 | –
6 | CCOc1c(C(C)n2nc(C)c3c(N)ncnc32)cc(Cl)c(F)c1C1CNC(=O)C1 (stereo not shown) [Compound 32c, 4-{3-[1-(4-amino-3-methyl-1H-pyrazolo[3,4-d]pyrimidin-1-yl)ethyl]-5-chloro-2-ethoxy-6-fluorophenyl}pyrrolidin-2-one] | – | – | – | – | – | percent tumor growth inhibition ([6]; 0.3 mg/kg oral twice daily for 14 days): 22%; percent tumor growth inhibition ([6]; 1 mg/kg oral twice daily for 14 days): 24%; percent tumor growth inhibition ([6]; 3 mg/kg oral twice daily for 14 days): 36%; percent tumor growth inhibition ([6]; 10 mg/kg oral twice daily for 14 days): 58%; anti-proliferative effects on Pfeiffer cancer cells (Pfeiffer cells [3]; in vitro): sensitive
